Experimental data as given in PMC10720709, “Design, synthesis, and evaluation of 4-(3-(3,5-dimethylisoxazol-4-yl)benzyl)phthalazin-1(2H)-one derivatives: potent BRD4 inhibitors with anti-breast cancer activity” (Frontiers in Pharmacology, 2023).
Like-named read-outs stand apart in the source and are kept apart here.

Tests used:
MDA-MB-231 cells = test: MTT cell viability assay, MDA-MB-231; assay type: cell-based; details: Homo sapiens, read-out: Cytotoxicity IC50
Procedure: (§1) MDA-MB-468, MDA-MB-231, and MCF-7 cell lines were sourced from the National Collection of Authenticated Cell Culture, China. Cells were maintained in DMEM medium supplemented with 10% FBS and 1% penicillin/streptomycin, and incubated at 37°C in a humidified atmosphere containing 5% CO2.
(§2) The viability of cells was assessed using the MTT assay. Cells were seeded at a density of 3×10^3 cells per well in a 96-well plate and treated with varying concentrations (0.05, 0.2, 0.8, 3.2, 6.4, 12.8 µM) of the compounds for 72 h. Post-incubation, 100 µL of MTT solution (0.5 mg/mL) was added to each well and further incubated for 4 h. The resulting formazan crystals were dissolved in 150 µL DMSO, and the absorbance was measured at 570 nm using a microplate reader.

MDA-MB-468 cells = test: MTT cell viability assay, MDA-MB-468; assay type: cell-based; details: Homo sapiens, read-out: Cytotoxicity IC50
Procedure: as §1, §2

MCF-7 cells [1] = test: MTT cell viability assay, MCF-7; assay type: cell-based; details: Homo sapiens, read-out: Cytotoxicity IC50
Procedure: as §1, §2

[2] = target: T1, recombinant BRD4 (BD1 + BD2) (Homo sapiens, UniProt O60885); test: BRD4 TR-FRET activity assay; assay type: binding; details: for inhibition at 1 µM: 1 μmol/L, read-out: BRD4 inhibition rate; for IC50: TR-FRET, BRD4 (BD1 + BD2);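 as to all read-outs here: signal rises with BET ligand binding to the bromodomains, so inhibitors lower it, 120 min incubation at room temperature, 1% DMSO, wells lacking ligand as negative control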
T1 construct: employing a recombinant BRD4 (BD1 + BD2) and its corresponding ligand
Procedure: The BRD4 activity assay utilized TR-FRET technology, employing a recombinant BRD4 (BD1 + BD2) and its corresponding ligand. The TR-FRET signal generated in the assay is proportional to the ligand’s binding to the bromodomains. All reactions contained a final DMSO concentration of 1%. All binding reactions were conducted at room temperature. Each 20 µL reaction mixture, in assay buffer, comprised bromodomains, the BET Ligand, and the specified inhibitor amount. For the negative control, 5 µL of assay buffer replaced the BET ligand. After a 120-min incubation with the ligand, the TR-FRET signal was captured using a Tecan Infinite M1000 plate reader. IC50 values were determined through nonlinear regression with a normalized dose-response fit in Prism GraphPad software.

PARP1 = PARP1 (Homo sapiens, UniProt P09874); test: PARP1 enzymatic activity ELISA; assay type: biochemical; details: 0.5 μmol/L; read-out: PARP1 inhibition rate
PARP1, sequence (P09874 whole entry): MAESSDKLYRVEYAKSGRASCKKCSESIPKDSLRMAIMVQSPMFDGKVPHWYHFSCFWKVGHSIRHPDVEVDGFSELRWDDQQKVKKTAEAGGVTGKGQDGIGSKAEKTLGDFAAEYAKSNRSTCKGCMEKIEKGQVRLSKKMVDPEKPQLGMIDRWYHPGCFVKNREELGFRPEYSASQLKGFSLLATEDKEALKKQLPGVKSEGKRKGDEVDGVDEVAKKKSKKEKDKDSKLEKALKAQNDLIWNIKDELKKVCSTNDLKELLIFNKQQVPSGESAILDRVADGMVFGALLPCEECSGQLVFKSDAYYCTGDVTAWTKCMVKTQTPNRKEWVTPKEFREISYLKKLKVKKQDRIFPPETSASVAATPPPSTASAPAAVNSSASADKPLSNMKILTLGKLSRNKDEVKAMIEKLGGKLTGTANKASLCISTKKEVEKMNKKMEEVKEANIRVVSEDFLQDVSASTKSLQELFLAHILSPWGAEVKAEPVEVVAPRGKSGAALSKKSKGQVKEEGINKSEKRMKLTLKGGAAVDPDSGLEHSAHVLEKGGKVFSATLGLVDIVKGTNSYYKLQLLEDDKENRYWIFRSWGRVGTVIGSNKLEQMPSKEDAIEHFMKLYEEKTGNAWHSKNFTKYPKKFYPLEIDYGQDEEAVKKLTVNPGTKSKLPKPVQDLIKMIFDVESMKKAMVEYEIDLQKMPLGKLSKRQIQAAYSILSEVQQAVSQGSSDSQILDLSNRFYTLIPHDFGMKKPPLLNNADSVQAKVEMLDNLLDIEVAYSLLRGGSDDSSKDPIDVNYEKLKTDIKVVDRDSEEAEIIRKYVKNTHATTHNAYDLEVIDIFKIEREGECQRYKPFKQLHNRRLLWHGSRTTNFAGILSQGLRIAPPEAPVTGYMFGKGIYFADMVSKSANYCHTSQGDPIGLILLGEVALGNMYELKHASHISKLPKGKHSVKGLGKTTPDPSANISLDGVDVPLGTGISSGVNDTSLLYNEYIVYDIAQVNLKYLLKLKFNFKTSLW
Procedure: The inhibition of PARP1 enzymatic activity by the tested compounds was gauged using an ELISA in 96-well plates. Each well was pre-coated with histone (20 μg/mL) in 100 μL of PBS buffer and incubated overnight at 4 °C. […] This was followed by the addition of 5 μL of either the compound at varying concentrations or a solvent control. The reaction was initiated by adding 20 μL of PARP (50 ng/well) and incubating at 30°C for 1 h. Post-reaction, 50 µL of streptavidin-conjugated HRP was introduced, and the assay continued at 30°C for an additional 30 min. Finally, 100 μL of a solution containing H2O2 and luminol in 0.1 M citrate buffer (pH 5.4) was added, and the luminescent signal was recorded using a Molecular Devices SpectraMax M5 microplate reader.

MCF-7 cells [3] = test: Wound scratch cell migration assay; assay type: cell-based; details: MCF-7, wound scratch, 1 μM, 48 h
Procedure: MCF-7 cells were seeded in 6-well plates at a density of 5×10^5 cells/well and incubated overnight. A scratch was made in the cell monolayer using a 10 µL pipette tip. […] Images were captured at 0, 12, 24, and 48-h intervals.

MCF-7 cells [4] = test: Cell cycle analysis (PI, flow cytometry); assay type: cell-based; details: MCF-7, 48 h
Procedure: The cell cycle distribution was assessed using the DNA Content Quantitation Assay Kit (Solarbio, China). […] After treatment, cells were harvested, fixed in ice-cold 70% ethanol overnight at 4°C, and subsequently washed with PBS. Cells were then treated with 100 μL RNase at 37°C for 30 min and stained with 400 μL PI for 30 min at 4°C in the dark. The cell cycle distribution was analyzed using an Accuri C6 Plus flow cytometer (BD Bioscience, CA), and data interpretation was performed with FlowJo software.

| SMILES | IC50 (MDA-MB-231 cells; MDA-MB-231, MTT, 72 h) | IC50 (MDA-MB-468 cells; MDA-MB-468, MTT, 72 h) | melting point | IC50 (MCF-7 cells [1]; MCF7, MCF-7, MTT, 72 h) | inhibition at 1 µM [2] | IC50 [2] | inhibition at 0.5 µM (PARP1) | IC50 (MDA-MB-231 cells; MDA-MB-231, 72 h) | IC50 (MDA-MB-468 cells; MDA-MB-468, 72 h) | IC50 (MCF-7 cells [1]; MCF7, 72 h) | inhibition of cell migration (in words) (MCF-7 cells [3]) | effect on cell cycle (in words) (MCF-7 cells [4]) |
| --- | --- | --- | --- | --- | --- | --- | --- | --- | --- | --- | --- | --- |
| Cc1noc(C)c1-c1cc(Cc2n[nH]c(=O)c3ccccc23)cc(C(=O)N2CC[C@H](O)C2)c1 [DDT14] | 8.29 µM | 14.4 µM | 204 to 205 °C | > 20 µM | 74% | 1.1 ± 0.45 µM | 53% |  |  |  |  |  |
| Cc1ccccc1C(=O)Nc1cc(Cc2n[nH]c(=O)c3ccccc23)cc(-c2c(C)noc2C)c1 [DDT23] | 8.83 µM | 10.6 µM |  | 18.7 µM | 97% |  |  |  |  |  |  |  |
| Cc1cccc(C(=O)Nc2cc(Cc3n[nH]c(=O)c4ccccc34)cc(-c3c(C)noc3C)c2)c1 [DDT24] | 8.23 µM | 9.09 µM | > 250 °C | 12.8 µM | 91% | 1.88 ± 0.6 µM |  |  |  |  |  |  |
| Cc1ccc(C(=O)Nc2cc(Cc3n[nH]c(=O)c4ccccc34)cc(-c3c(C)noc3C)c2)cc1 [DDT25] | 11.6 µM | 6.5 µM |  | 12.5 µM | 76% |  |  |  |  |  |  |  |
| CC(=O)Nc1cccc(CNc2cc(Cc3n[nH]c(=O)c4ccccc34)cc(-c3c(C)noc3C)c2)c1 [DDT47] | 17.1 µM | 9.39 µM |  | 11.7 µM | 78% |  |  |  |  |  |  |  |
| CC(=O)Nc1ccc(CNc2cc(Cc3n[nH]c(=O)c4ccccc34)cc(-c3c(C)noc3C)c2)cc1 [DDT48] | 8.77 µM | 9.09 µM |  | > 20 µM | 96% | 0.46 ± 0.17 µM |  |  |  |  |  |  |
| Cc1noc(C)c1-c1cc(Cc2n[nH]c(=O)c3ccccc23)cc(NCc2cccc(N)c2)c1 [DDT49] |  |  |  |  | 72% | 0.585 ± 0.225 µM | 50% |  |  |  |  |  |
| Cc1ccc(S(=O)(=O)Nc2cc(Cc3n[nH]c(=O)c4ccccc34)cc(-c3c(C)noc3C)c2)cc1 [DDT59] | 7.44 µM | 11 µM |  | > 20 µM | 75% | 0.909 ± 0.396 µM | 8% |  |  |  |  |  |
| Cc1sc2c(c1C)C(c1ccc(Cl)cc1)=N[C@@H](CC(=O)OC(C)(C)C)c1nnc(C)n1-2 [JQ1, reference compound] |  |  |  |  |  |  |  | 4.83 µM | 3.24 µM | 18.4 µM | most potent inhibitory effect |  |
| O=C(c1cc(Cc2n[nH]c(=O)c3ccccc23)ccc1F)N1CCN(C(=O)C2CC2)CC1 [Olaparib, reference compound] | 8.17 µM | 8.09 µM |  | 8.7 µM |  |  |  |  |  |  | no inhibitory activity | did not influence the MCF-7 cell cycle |
